# Values of other authors, collected in publication PMC11477967, “Review of the Structural Characteristics and Biological Activities of Tricholoma Secondary Metabolites (2018–2023)” (Molecules, 2024).
# Where two headings read alike, the source gives them in different places.
# Experiments:
# human cancer cell lines = conditions: for Bioactivities: Cytotoxic against human cancer cell lines: Table 1 summary; for cytotoxicity rank: among 55, 56, 58, 60, 61, cell line not specified
# [1] = parameters: method as in PMID 36480815; conditions: Table 1 summary
# PDF = test system: PDF; parameters: method as in PMID 36480815; conditions: PDF cells
# [2] = parameters: method as in doi:10.1016/0040-4039(96)01329-9; conditions: solutions containing trace inorganic acids
# Bacillus subtilis = test system: Bacillus subtilis; parameters: method as in PMID 28794307
# E. coli [3] = test system: E. coli; parameters: method as in PMID 28794307
# bacteria = test system: bacteria; parameters: method as in PMID 32534274, PMID 26186257, PMID 34604687, PMID 28794307; conditions: Table 1 summary
# S. aureus [4] = test system: S. aureus; parameters: method as in PMID 28794307
# S. epidermidis [5] = test system: S. epidermidis; parameters: method as in PMID 28794307
# Hep G2 [6] = test system: Hep G2; parameters: method as in doi:10.1177/1934578X1801300901; conditions: said to surpass shikonin
# MCF-7 [7] = test system: MCF-7; parameters: method as in doi:10.1177/1934578X1801300901
# WISH = test system: WISH; parameters: method as in doi:10.1177/1934578X1801300901
# Caki-1 [8] = test system: Caki-1; parameters: method as in doi:10.1177/1934578X1801300901
# A549 = test system: A549; parameters: method as in doi:10.1177/1934578X1801300901; conditions: said to surpass shikonin
# Caki-1 [9] = test system: Caki-1; parameters: method as in PMID 37175274
# Hep G2 [10] = test system: Hep G2; parameters: method as in PMID 37175274
# A-549 [11] = test system: A-549; parameters: method as in PMID 37175274
# MCF-7 [12] = test system: MCF-7; parameters: method as in PMID 37175274
# HeLa [13] = test system: HeLa; parameters: method as in PMID 36480815; conditions: HeLa cell line
# [14] = parameters: method as in PMID 36480815; conditions: among 50-54
# HeLa [15] = test system: HeLa; parameters: method as in PMID 33449279
# human tumor cell lines = test system: human tumor cell lines; parameters: method as in PMID 29758519, PMID 32534274, PMID 26186257; conditions: Table 1 summary
# B. subtilis = test system: B. subtilis; parameters: method as in PMID 26186257
# Pseudomonas aeruginosa = test system: Pseudomonas aeruginosa; parameters: method as in PMID 26186257
# MCF-7 [16] = test system: MCF-7
# A-549 [17] = test system: A-549
# S. aureus [18] = test system: S. aureus; parameters: method as in PMID 26186257
# S. epidermidis [19] = test system: S. epidermidis; parameters: method as in PMID 26186257
# E. coli [20] = test system: E. coli; parameters: method as in PMID 26186257
# caspase-9 = test system: caspase-9; parameters: method as in PMID 33449279; conditions: compared to the control group
# MCF-7 [21] = test system: MCF-7; parameters: method as in PMID 33449279; conditions: MCF-7 cells
# caspase-3 = test system: caspase-3; parameters: method as in PMID 33449279; conditions: compared to the control group
smiles,measurement,setting,value
"CC(C)C(C)/C=C/[C@@H](C)C1CCC2C3=C[C@@H](O)[C@@]45C[C@@H](O)CC[C@]4(C)[C@]3(CC[C@@]21C)O5 (stereo partly drawn) [Compound 51, anatoluin B]",cytotoxic activity,MCF7,selectively inhibited
same,cytotoxic activity,human cancer cell lines,good cytotoxic activity
same,Bioactivities: Antioxidant activity,[1],Antioxidant activity
same,cytotoxic activity,H1299,selectively inhibited
same,toxicity to normal or healthy cell lines,L929,almost no toxicity
"CC(C)C(C)C=CC(C)C1CCC2C1(C)CCC1C23C=CC2(CC(O)CCC12C)OO3 (stereo not drawn) [Compound 53, ergosterol-endoperoxide]",IC50,PDF,52.8 ± 0.5 µg/mL
same,Bioactivities: Cytotoxic against human cancer cell lines,human cancer cell lines,Cytotoxic against human cancer cell lines
same,Bioactivities: Antioxidant activity,[1],Antioxidant activity
same,IC50,L929; L929 cells,65.6 ± 2.2 µg/mL
same,cytotoxic activity,HT29; HT29,selectively inhibited
"C=C(C#CC1=CC(OC(C)=O)CC(OC(=O)C(C)=CCCC(=C)C#CC2=CC(OC(C)=O)C3OC3C2=O)C1=O)CCC=C(C)C(=O)O (stereo not drawn) [Compound 79, tricholomenyn C]",stability,[2],easily decomposes
"CC(C)C(C)/C=C/C(C)C1CCC2C3=CC4OC45C[C@@H](O)CC[C@]5(C)C3CC[C@@]21C (stereo partly drawn) [Compound 52, 5α,6α-epoxy-ergosta-7,22-dien,3β-ol]",cytotoxic activity,MCF7,selectively inhibited
same,Bioactivities: Antioxidant activity,[1],Antioxidant activity
same,cytotoxic activity,H1299,selectively inhibited
same,toxicity to normal or healthy cell lines,L929,almost no toxicity
same,cytotoxic activity,HT29,selectively inhibited
"C=CC(O)CCCCC (stereo not drawn) [Compound 93, 1-octen-3-ol]",antibacterial activity,Bacillus subtilis,strong antibacterial activity
same,antibacterial activity,E. coli [3],strong antibacterial activity
same,Bioactivities: Antibacterial activity,bacteria,Antibacterial activity
same,antibacterial activity,S. aureus [4],strong antibacterial activity
same,antibacterial activity,S. epidermidis [5],strong antibacterial activity
"C=C1CCC(CC=C2CCC3(OC2)OC2(O)CCC3(C)OC2(C)C)C(C)(C)C1C(O)C=C1CCOC1=O (stereo not drawn) [Compound 55, saponaceolide T]",Bioactivities: Cytotoxic against human cancer cell lines,human cancer cell lines,Cytotoxic against human cancer cell lines
same,antiproliferative effects,Hep G2 [6],strong antiproliferative effects
same,antiproliferative effects,MCF-7 [7],strong antiproliferative effects
same,antiproliferative effects,WISH,strong antiproliferative effects
same,antiproliferative effects,Caki-1 [8],strong antiproliferative effects
same,antiproliferative effects,A549,strong antiproliferative effects
"C=C1CCC(CCC2CCC3(OC2)OC2(O)CCC3(C)OC2(C)C)C(C)(C)C1CC=C1CCOC1=O (stereo not drawn) [Compound 57, saponaceolide B]",inhibitory effects,Caki-1 [9],notable inhibitory effects
same,Bioactivities: Cytotoxic against human cancer cell lines,human cancer cell lines,Cytotoxic against human cancer cell lines
same,inhibitory effects,Hep G2 [10],notable inhibitory effects
same,inhibitory effects,A-549 [11],notable inhibitory effects
same,inhibitory effects,MCF-7 [12],notable inhibitory effects
"CC(C)C(C)/C=C/[C@@H](C)C1CCC2C3=C[C@H](O)[C@@]45C[C@@H](O)CC[C@]4(C)[C@]3(CC[C@@]21C)O5 (stereo partly drawn) [Compound 50, anatoluin A]",cytotoxic activity,MCF7,selectively inhibited
same,IC50,HeLa [13],14.3 ± 1.7 µg/mL
same,Bioactivities: Antioxidant activity,[1],Antioxidant activity
same,cytotoxic activity,H1299,selectively inhibited
same,IC50,H1299; H1299 cell line,34.3 ± 1.1 µg/mL
same,toxicity to normal or healthy cell lines,L929,almost no toxicity
same,cytotoxic activity,HT29,selectively inhibited
same,"lipid peroxidation inhibitory activity (rank, words)",[14],most active
"C=C1CCC(CC=C2CCC3(OC2)OC2(O)CCC3(C)OC2(C)C)C(C)(C)C1CC=C1C(=O)OCC1O (stereo not drawn) [Compound 60, saponaceolide F]",inhibitory effects,Caki-1 [9],notable inhibitory effects
same,Bioactivities: Cytotoxic against human cancer cell lines,human cancer cell lines,Cytotoxic against human cancer cell lines
same,cytotoxicity rank,human cancer cell lines,most significant cytotoxicity
same,inhibitory effects,Hep G2 [10],notable inhibitory effects
same,antiproliferative effects,Hep G2 [6],strong antiproliferative effects
same,antiproliferative effects,MCF-7 [7],strong antiproliferative effects
same,antiproliferative effects,WISH,strong antiproliferative effects
same,antiproliferative effects,Caki-1 [8],strong antiproliferative effects
same,antiproliferative effects,A549,strong antiproliferative effects
same,inhibitory effects,A-549 [11],notable inhibitory effects
same,inhibitory effects,MCF-7 [12],notable inhibitory effects
"C=C1CCC(CC=C2CCC3(OC2)OC2(O)CCC3(C)OC2(C)C)C(C)(C)C1CC=C1CCOC1=O (stereo not drawn) [Compound 62, saponaceolide J]",inhibitory effects,Caki-1 [9],notable inhibitory effects
same,Bioactivities: Cytotoxic against human cancer cell lines,human cancer cell lines,Cytotoxic against human cancer cell lines
same,inhibitory effects,Hep G2 [10],notable inhibitory effects
same,inhibitory effects,A-549 [11],notable inhibitory effects
same,inhibitory effects,MCF-7 [12],notable inhibitory effects
"C=C1CCC(CCC2CC=C(C3(C)CCC(=O)C(C)(C)O3)OC2)C(C)(C)C1CC=C1CCOC1=O (stereo not drawn) [Compound 64, tricholopardin D]",Bioactivities: Cytotoxic against human cancer cell lines,human cancer cell lines,Cytotoxic against human cancer cell lines
same,cytotoxicity,HeLa [15],cytotoxicity
"CC(C)C(C)C=CC(C)C1CCC2C(=CC(=O)OC3(C)CCC=CC3=O)C(=O)CCC21C (stereo not drawn) [Compound 40, chaxine C]",Bioactivities: Anti-cancer activity,human tumor cell lines,Anti-cancer activity
same,antibacterial activity,B. subtilis,more significant inhibitory effect
same,antibacterial activity,Pseudomonas aeruginosa,antibacterial activity
same,Bioactivities: Antibacterial activity,bacteria,Antibacterial activity
same,selective cytotoxicity,MCF-7 [16],selective toxicity
same,IC50,A-549 [17],< 10 µM
same,selective cytotoxicity,A-549 [17],selective toxicity
same,antibacterial activity,S. aureus [18],more significant inhibitory effect
same,antibacterial activity,S. epidermidis [19],antibacterial activity
same,antibacterial activity,E. coli [20],antibacterial activity
"C=C1CCC(CCC2CCC3(OC2)OC2(O)CCC3(C)OC2(C)C)C(C)(C)C1CC=C1C(=O)OCC1O (stereo not drawn) [Compound 56, saponaceolide A]",inhibitory effects,Caki-1 [9],notable inhibitory effects
same,Bioactivities: Cytotoxic against human cancer cell lines,human cancer cell lines,Cytotoxic against human cancer cell lines
same,cytotoxicity rank,human cancer cell lines,most significant cytotoxicity
same,inhibitory effects,Hep G2 [10],notable inhibitory effects
same,antiproliferative effects,Hep G2 [6],strong antiproliferative effects
same,antiproliferative effects,MCF-7 [7],strong antiproliferative effects
same,antiproliferative effects,WISH,strong antiproliferative effects
same,antiproliferative effects,Caki-1 [8],strong antiproliferative effects
same,antiproliferative effects,A549,strong antiproliferative effects
same,inhibitory effects,A-549 [11],notable inhibitory effects
same,inhibitory effects,MCF-7 [12],notable inhibitory effects
"C=C1CCC(CCC2CC=C(C3(C)CCC(=O)C(C)(C)O3)OC2)C(C)(C)C1CC=C1C(=O)OCC1O (stereo not drawn) [Compound 63, tricholopardin C]",Bioactivities: Cytotoxic against human cancer cell lines,human cancer cell lines,Cytotoxic against human cancer cell lines
same,cytotoxicity,HeLa [15],cytotoxicity
same,activation of caspase-9,caspase-9,activation
same,IC50,MCF-7 [21],4.7 µM
same,activation of caspase-3,caspase-3,activation
